Reference: PubChem BioAssay (NCI)
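Tested at 5 concentrations; 48 h exposure; 96-well plates; endpoints linearly interpolated, else capped at highest concentration. Here, GI50 denotes the concentration required for 50% inhibition of growth. TGI is the concentration that stops growth completely.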 *1 amine or outer side, *2 acyl side, *3 side chain or, on linkers, in order; H or OH if unused. Where a SMILES comes first, the peptide text is derived from it. Bridges are numbered along the chain shown (N, C = ends). [ ]: non-standard residue; d: D form. The star is where a group is joined. X19 = O=C([C@H](N[*:1])c1ccc(O[C@H]2O[C@@H](CO)[C@@H](O)[C@@H](O)[C@H]2O[C@@H]2O[C@H](CO)[C@H](O)[C@H](O)[C@@H]2O)cc1)[*:2]; X18 = NC(=O)[C@@H](O[*:3])[C@H](N[*:1])C(=O)[*:2]; X20 = O=C([C@H](N[*:1])c1ccc(O)c(Cl)c1)[*:2]; d(aThr) = C[C@@H](O)[C@@H](N)C(=O)O; dHpg = N[C@@H](C(=O)O)c1ccc(O)cc1; X17 = CC(C)C/C=C/C=C/C(=O)*; dOrn = NCCC[C@@H](N)C(=O)O

Assays:
Test in all cases: NCI anticancer screen, dose series, 48 h
[1] = test system: 786-0 renal
[2] = test system: HCT-15 colon
[3] = test system: HS 578T breast
[4] = test system: KM12 colon
[5] = test system: MOLT-4 leukemia
[6] = test system: NCI-H226 lung
[7] = test system: NCI-H23 lung
[8] = test system: OVCAR-8 ovarian
[9] = test system: SK-OV-3 ovarian
[10] = test system: T-47D breast

SMILES | GI50 [1] [µM] | TGI [1] [µM] | GI50 [2] [µM] | TGI [2] [µM] | GI50 [3] [µM] | TGI [3] [µM] | GI50 [4] [µM] | TGI [4] [µM] | GI50 [5] [µM] | TGI [5] [µM] | GI50 [6] [µM] | TGI [6] [µM] | GI50 [7] [µM] | TGI [7] [µM] | GI50 [8] [µM] | TGI [8] [µM] | GI50 [9] [µM] | TGI [9] [µM] | GI50 [10] [µM] | TGI [10] [µM]
O=C(O[C@H]1CN[C@H](C#Cc2cc3ncnc(Nc4ccc(OCc5cccc(F)c5)c(Cl)c4)c3s2)C1)N1CCOCC1 | 4.68 | 9.66 | 8.09 | > 25 | 7.23 | > 25 | 5.07 | 11.2 | 6 | 23.2 | 5.32 | 12 | 9.7 | > 25 | 7.35 | > 25 | 0.0356 | > 25 | 1.55 | > 25
O=C(NC1CCN(Cc2ccccc2)CC1)c1cc(C(=O)NC2CCN(Cc3ccccc3)CC2)cc(C(=O)NC2CCN(Cc3ccccc3)CC2)c1 | 14.8 | > 50 | > 50 | > 50 | 7.26 | 16.9 | 3.37 | 12.1 | 1.22 | 3.16 | 14.7 | > 50 | 7.78 | 15.7 | 12.7 | 43.4 | 8.27 | 16.1 | 4.56 | 14.3
C/C=C1\C(=O)O[C@@H]2C1C[C@@H]1O[C@H]2[C@H](C)CCC/C(C)=C/CC[C@@]1(C)O (stereo partly drawn) | 3.21 | 14.2 | 5.51 | 21.8 |  |  | 13.9 | 31.7 | 4.59 | > 100 |  |  |  |  | 2.52 | 6.76 | 14.1 | 37.4 | 42.7 | > 100
C[C@@H](Oc1cc(NS(=O)(=O)N2CCC2)nc(SCc2cccc(F)c2F)n1)[C@@H](O)CO | > 100 | > 100 | > 100 | > 100 | > 100 | > 100 | > 100 | > 100 | > 100 | > 100 | > 100 | > 100 | > 100 | > 100 | > 100 | > 100 | > 100 | > 100 | > 100 | > 100
N#Cc1ccc(-c2nc3ccc(Cl)cc3[nH]2)cc1 |  | > 100 |  | > 100 |  | > 100 |  | > 100 |  | > 100 |  | > 100 |  |  |  | > 100 |  | > 100 |  | > 100
CC(C)C/C=C/C=C/C(=O)N[C@@H](CC(N)=O)C(=O)N[C@@H]1C(=O)N[C@H](c2ccc(O)cc2)C(=O)N[C@H](CCCN)C(=O)N[C@H]([C@@H](C)O)C(=O)N[C@H](c2ccc(O)cc2)C(=O)N[C@H](c2ccc(O)cc2)C(=O)N[C@H]([C@H](C)O)C(=O)N[C@H](Cc2ccccc2)C(=O)N[C@H](CCCN)C(=O)N[C@H](c2ccc(O[C@H]3O[C@@H](CO)[C@@H](O)[C@@H](O)[C@H]3O[C@@H]3O[C@H](CO)[C@H](O)[C@H](O)[C@@H]3O)cc2)C(=O)N[C@H]([C@H](C)O)C(=O)N[C@H](c2ccc(O)cc2)C(=O)NCC(=O)N[C@H](CC(C)C)C(=O)N[C@H](C)C(=O)N[C@H](c2ccc(O)c(Cl)c2)C(=O)O[C@@H]1C(N)=O (X17-N[X18][dHpg][dOrn][d(aThr)][dHpg][dHpg][dT][dF][dOrn][X19][dT][dHpg]G[dL][dA][X20]; ester 2-C) | 25 | 56.7 | 30.3 | > 100 | 27.8 | 82.1 | 27.8 | > 100 | 31.7 | > 100 |  |  | 25.8 | 88.9 | 46.8 | > 100 | 25.3 | 64.9 | 34.6 | 98.9
C#Cc1cccc(Nc2ncnc3ccc(-c4cnc(Cl)c(NS(C)(=O)=O)c4)cc23)c1 | 0.343 | 4.55 | 0.295 | 1.97 | 0.0815 | 0.754 | 0.891 | 2.55 | 0.244 | 1.53 | 0.564 | 4.3 | 0.385 | 8.03 | 0.825 | > 33.5 | 0.206 | 1.38 | 0.046 | 1.2
COc1cc([C@@H]2c3cc4c(cc3[C@H](OC(C)=O)[C@H]3COC(=O)[C@H]23)OCO4)cc(OC)c1OC | 0.0341 | > 100 | 0.0316 | > 100 | 0.0312 | > 100 | 0.0306 | > 100 | 0.0385 | > 100 | 0.0975 | > 100 | 0.053 | > 100 | 0.0361 | > 100 | 0.035 | > 100 | 0.0669 | > 100
Cc1ccc(C(=O)CCC2C(=O)CC(C)(C)CC2=O)cc1 |  | > 100 |  | > 100 |  | > 100 |  | > 100 |  | > 100 |  | > 100 |  | > 100 |  | > 100 |  | > 100 |  | 
O=C(Nc1ccc(Cl)cc1)c1cc2cc(F)ccc2cc1O | 2.9 | > 100 | 1.78 | > 100 | 3.03 | > 100 | 2.74 | > 100 | 3.24 | 16.4 | 2.5 | 7.99 | 0.929 | 7.33 | 2.93 | > 100 | 1.08 | 5.76 | 0.941 | 5.36
ClC1(c2ccccc2)c2ccc(Br)cc2-c2cc(Br)ccc21 |  | 30.2 |  | 33.8 |  | 50.3 |  | 38.5 |  | > 100 |  | 36.4 |  | 29.3 |  | 35.8 |  | 39.1 |  | 58.3
O=C(COc1ccc(Cl)cc1)N1N=C(c2ccc([N+](=O)[O-])o2)CC1(O)c1ccccc1 (stereo not drawn) |  | 20.7 |  | 18.5 |  |  |  | 27.7 |  | 47.3 |  | 55.6 |  | 6.73 |  | 23.6 |  | 47.3 |  | 
NCCCn1c2c(c3cc4c(cc3c1=O)OCO4)C(=O)c1ccccc1-2 | 1.49 | 2.88 | 0.554 | 1.94 | 1.88 | 4.4 | 0.757 | 2.13 | 0.0223 | 0.0742 | 4.09 | 24.8 | 0.564 | 2.09 | 0.142 | 1.14 | 10.5 | > 100 | 5.18 | > 100
